# Measured values as given in PubChem BioAssay (NCI).
#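 All cell lines were grown in 96-well plates and treated with compound for 48 hours. Definition used: TGI = concentration required for complete inhibition of growth.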
# Tested on: UO-31 renal
# Experiment: DTP human tumour cell line panel, 48 h
row,Compound,TGI [µM]
1,COC(=O)C1(O)C(c2ccccc2)=NC2(C)CCCC21 (stereo unspecified),> 100
2,C=CC(=O)N1C/C(=C\c2ccc(Cl)cc2)C(=O)/C(=C/c2ccc(Cl)cc2)C1,1.17

# Tested on: A549 NSCLC
# Experiment: DTP human tumour cell line panel, 48 h
row,Compound,TGI [µM]
1,CCOC(=O)C(NC(=O)Nc1ccc(Cl)cc1)(OC)C(F)(F)F (stereo unspecified),> 100
2,O=S1(=O)C[C@@H](NCc2ccccc2)[C@H](NCc2ccccc2)C1,> 100
3,COC(=O)C1(O)C(c2ccccc2)=NC2(C)CCCC21 (stereo unspecified),> 100
4,C=CC(=O)N1C/C(=C\c2ccc(Cl)cc2)C(=O)/C(=C/c2ccc(Cl)cc2)C1,1.64

# Tested on: K-562 leukemia
# Experiment: DTP human tumour cell line panel, 48 h
row,Compound,TGI [µM]
1,O=S1(=O)C[C@@H](NCc2ccccc2)[C@H](NCc2ccccc2)C1,> 100
2,COC(=O)C1(O)C(c2ccccc2)=NC2(C)CCCC21 (stereo unspecified),> 100

# Tested on: EKVX NSCLC
# Experiment: DTP human tumour cell line panel, 48 h
row,Compound,TGI [µM]
1,CCOC(=O)C(NC(=O)Nc1ccc(Cl)cc1)(OC)C(F)(F)F (stereo unspecified),> 100
2,O=S1(=O)C[C@@H](NCc2ccccc2)[C@H](NCc2ccccc2)C1,> 100
3,C=CC(=O)N1C/C(=C\c2ccc(Cl)cc2)C(=O)/C(=C/c2ccc(Cl)cc2)C1,4.72

# Tested on: HCT-15 colon
# Experiment: DTP human tumour cell line panel, 48 h
row,Compound,TGI [µM]
1,CCOC(=O)C(NC(=O)Nc1ccc(Cl)cc1)(OC)C(F)(F)F (stereo unspecified),> 100
2,COC(=O)C1(O)C(c2ccccc2)=NC2(C)CCCC21 (stereo unspecified),> 100
3,C=CC(=O)N1C/C(=C\c2ccc(Cl)cc2)C(=O)/C(=C/c2ccc(Cl)cc2)C1,0.497

# Tested on: SN12C renal
# Experiment: DTP human tumour cell line panel, 48 h
row,Compound,TGI [µM]
1,CCOC(=O)C(NC(=O)Nc1ccc(Cl)cc1)(OC)C(F)(F)F (stereo unspecified),> 100
2,O=S1(=O)C[C@@H](NCc2ccccc2)[C@H](NCc2ccccc2)C1,> 100
3,COC(=O)C1(O)C(c2ccccc2)=NC2(C)CCCC21 (stereo unspecified),> 100
4,C=CC(=O)N1C/C(=C\c2ccc(Cl)cc2)C(=O)/C(=C/c2ccc(Cl)cc2)C1,0.704

# Tested on: SW-620 colon
# Experiment: DTP human tumour cell line panel, 48 h
row,Compound,TGI [µM]
1,CCOC(=O)C(NC(=O)Nc1ccc(Cl)cc1)(OC)C(F)(F)F (stereo unspecified),> 100
2,O=S1(=O)C[C@@H](NCc2ccccc2)[C@H](NCc2ccccc2)C1,> 100
3,COC(=O)C1(O)C(c2ccccc2)=NC2(C)CCCC21 (stereo unspecified),> 100
4,C=CC(=O)N1C/C(=C\c2ccc(Cl)cc2)C(=O)/C(=C/c2ccc(Cl)cc2)C1,0.887

# Tested on: MDA-N
# Experiment: DTP human tumour cell line panel, 48 h
row,Compound,TGI [µM]
1,CCOC(=O)C(NC(=O)Nc1ccc(Cl)cc1)(OC)C(F)(F)F (stereo unspecified),> 100
2,O=S1(=O)C[C@@H](NCc2ccccc2)[C@H](NCc2ccccc2)C1,> 100
3,COC(=O)C1(O)C(c2ccccc2)=NC2(C)CCCC21 (stereo unspecified),> 100
4,C=CC(=O)N1C/C(=C\c2ccc(Cl)cc2)C(=O)/C(=C/c2ccc(Cl)cc2)C1,0.515

# Tested on: UACC-62 melanoma
# Experiment: DTP human tumour cell line panel, 48 h
row,Compound,TGI [µM]
1,O=S1(=O)C[C@@H](NCc2ccccc2)[C@H](NCc2ccccc2)C1,> 100
2,COC(=O)C1(O)C(c2ccccc2)=NC2(C)CCCC21 (stereo unspecified),> 100
3,C=CC(=O)N1C/C(=C\c2ccc(Cl)cc2)C(=O)/C(=C/c2ccc(Cl)cc2)C1,1.02

# Tested on: HOP-62 NSCLC
# Experiment: DTP human tumour cell line panel, 48 h
row,Compound,TGI [µM]
1,O=S1(=O)C[C@@H](NCc2ccccc2)[C@H](NCc2ccccc2)C1,> 100
2,COC(=O)C1(O)C(c2ccccc2)=NC2(C)CCCC21 (stereo unspecified),> 100
3,C=CC(=O)N1C/C(=C\c2ccc(Cl)cc2)C(=O)/C(=C/c2ccc(Cl)cc2)C1,1.02

# Tested on: HOP-92 NSCLC
# Experiment: DTP human tumour cell line panel, 48 h
row,Compound,TGI [µM]
1,O=S1(=O)C[C@@H](NCc2ccccc2)[C@H](NCc2ccccc2)C1,> 100
2,COC(=O)C1(O)C(c2ccccc2)=NC2(C)CCCC21 (stereo unspecified),> 100
3,C=CC(=O)N1C/C(=C\c2ccc(Cl)cc2)C(=O)/C(=C/c2ccc(Cl)cc2)C1,4.25

# Tested on: CCRF-CEM leukemia
# Experiment: DTP human tumour cell line panel, 48 h
row,Compound,TGI [µM]
1,O=S1(=O)C[C@@H](NCc2ccccc2)[C@H](NCc2ccccc2)C1,> 100
2,COC(=O)C1(O)C(c2ccccc2)=NC2(C)CCCC21 (stereo unspecified),> 100

# Tested on: MDA-MB-231 breast
# Experiment: DTP human tumour cell line panel, 48 h
row,Compound,TGI [µM]
1,O=S1(=O)C[C@@H](NCc2ccccc2)[C@H](NCc2ccccc2)C1,> 100
2,COC(=O)C1(O)C(c2ccccc2)=NC2(C)CCCC21 (stereo unspecified),> 100
3,C=CC(=O)N1C/C(=C\c2ccc(Cl)cc2)C(=O)/C(=C/c2ccc(Cl)cc2)C1,1.2

# Tested on: IGROV1 ovarian
# Experiment: DTP human tumour cell line panel, 48 h
row,Compound,TGI [µM]
1,CCOC(=O)C(NC(=O)Nc1ccc(Cl)cc1)(OC)C(F)(F)F (stereo unspecified),> 100
2,O=S1(=O)C[C@@H](NCc2ccccc2)[C@H](NCc2ccccc2)C1,> 100
3,COC(=O)C1(O)C(c2ccccc2)=NC2(C)CCCC21 (stereo unspecified),> 100
4,C=CC(=O)N1C/C(=C\c2ccc(Cl)cc2)C(=O)/C(=C/c2ccc(Cl)cc2)C1,0.678

# Tested on: SK-MEL-2 melanoma
# Experiment: DTP human tumour cell line panel, 48 h
row,Compound,TGI [µM]
1,CCOC(=O)C(NC(=O)Nc1ccc(Cl)cc1)(OC)C(F)(F)F (stereo unspecified),64.8
2,O=S1(=O)C[C@@H](NCc2ccccc2)[C@H](NCc2ccccc2)C1,> 100
3,COC(=O)C1(O)C(c2ccccc2)=NC2(C)CCCC21 (stereo unspecified),> 100
4,C=CC(=O)N1C/C(=C\c2ccc(Cl)cc2)C(=O)/C(=C/c2ccc(Cl)cc2)C1,2.85

# Tested on: SK-MEL-28 melanoma
# Experiment: DTP human tumour cell line panel, 48 h
row,Compound,TGI [µM]
1,CCOC(=O)C(NC(=O)Nc1ccc(Cl)cc1)(OC)C(F)(F)F (stereo unspecified),> 100
2,O=S1(=O)C[C@@H](NCc2ccccc2)[C@H](NCc2ccccc2)C1,> 100
3,COC(=O)C1(O)C(c2ccccc2)=NC2(C)CCCC21 (stereo unspecified),> 100
4,C=CC(=O)N1C/C(=C\c2ccc(Cl)cc2)C(=O)/C(=C/c2ccc(Cl)cc2)C1,1.6

# Tested on: RXF 393 renal
# Experiment: DTP human tumour cell line panel, 48 h
row,Compound,TGI [µM]
1,CCOC(=O)C(NC(=O)Nc1ccc(Cl)cc1)(OC)C(F)(F)F (stereo unspecified),> 100
2,O=S1(=O)C[C@@H](NCc2ccccc2)[C@H](NCc2ccccc2)C1,> 100
3,COC(=O)C1(O)C(c2ccccc2)=NC2(C)CCCC21 (stereo unspecified),> 100
4,C=CC(=O)N1C/C(=C\c2ccc(Cl)cc2)C(=O)/C(=C/c2ccc(Cl)cc2)C1,0.659

# Tested on: SF-539 CNS
# Experiment: DTP human tumour cell line panel, 48 h
row,Compound,TGI [µM]
1,CCOC(=O)C(NC(=O)Nc1ccc(Cl)cc1)(OC)C(F)(F)F (stereo unspecified),> 100
2,O=S1(=O)C[C@@H](NCc2ccccc2)[C@H](NCc2ccccc2)C1,> 100
3,C=CC(=O)N1C/C(=C\c2ccc(Cl)cc2)C(=O)/C(=C/c2ccc(Cl)cc2)C1,0.419

# Tested on: NCI-H226 lung
# Experiment: DTP human tumour cell line panel, 48 h
row,Compound,TGI [µM]
1,O=S1(=O)C[C@@H](NCc2ccccc2)[C@H](NCc2ccccc2)C1,> 100
2,COC(=O)C1(O)C(c2ccccc2)=NC2(C)CCCC21 (stereo unspecified),> 100
3,C=CC(=O)N1C/C(=C\c2ccc(Cl)cc2)C(=O)/C(=C/c2ccc(Cl)cc2)C1,3.03

# Tested on: SNB-19 CNS
# Experiment: DTP human tumour cell line panel, 48 h
row,Compound,TGI [µM]
1,CCOC(=O)C(NC(=O)Nc1ccc(Cl)cc1)(OC)C(F)(F)F (stereo unspecified),> 100
2,O=S1(=O)C[C@@H](NCc2ccccc2)[C@H](NCc2ccccc2)C1,> 100
3,COC(=O)C1(O)C(c2ccccc2)=NC2(C)CCCC21 (stereo unspecified),> 100
4,C=CC(=O)N1C/C(=C\c2ccc(Cl)cc2)C(=O)/C(=C/c2ccc(Cl)cc2)C1,2.67

# Tested on: COLO 205 colon
# Experiment: DTP human tumour cell line panel, 48 h
row,Compound,TGI [µM]
1,CCOC(=O)C(NC(=O)Nc1ccc(Cl)cc1)(OC)C(F)(F)F (stereo unspecified),> 100
2,O=S1(=O)C[C@@H](NCc2ccccc2)[C@H](NCc2ccccc2)C1,> 100
3,COC(=O)C1(O)C(c2ccccc2)=NC2(C)CCCC21 (stereo unspecified),> 100
4,C=CC(=O)N1C/C(=C\c2ccc(Cl)cc2)C(=O)/C(=C/c2ccc(Cl)cc2)C1,0.719

# Tested on: SNB-75 CNS
# Experiment: DTP human tumour cell line panel, 48 h
row,Compound,TGI [µM]
1,CCOC(=O)C(NC(=O)Nc1ccc(Cl)cc1)(OC)C(F)(F)F (stereo unspecified),> 100
2,O=S1(=O)C[C@@H](NCc2ccccc2)[C@H](NCc2ccccc2)C1,> 100
3,COC(=O)C1(O)C(c2ccccc2)=NC2(C)CCCC21 (stereo unspecified),> 100
4,C=CC(=O)N1C/C(=C\c2ccc(Cl)cc2)C(=O)/C(=C/c2ccc(Cl)cc2)C1,1.64

# Tested on: HT29 colon
# Experiment: DTP human tumour cell line panel, 48 h
row,Compound,TGI [µM]
1,CCOC(=O)C(NC(=O)Nc1ccc(Cl)cc1)(OC)C(F)(F)F (stereo unspecified),> 100
2,O=S1(=O)C[C@@H](NCc2ccccc2)[C@H](NCc2ccccc2)C1,> 100
3,COC(=O)C1(O)C(c2ccccc2)=NC2(C)CCCC21 (stereo unspecified),> 100
4,C=CC(=O)N1C/C(=C\c2ccc(Cl)cc2)C(=O)/C(=C/c2ccc(Cl)cc2)C1,0.326

# Tested on: HL-60(TB) leukemia
# Experiment: DTP human tumour cell line panel, 48 h
row,Compound,TGI [µM]
1,CCOC(=O)C(NC(=O)Nc1ccc(Cl)cc1)(OC)C(F)(F)F (stereo unspecified),> 100

# Tested on: 786-0 renal
# Experiment: DTP human tumour cell line panel, 48 h
row,Compound,TGI [µM]
1,CCOC(=O)C(NC(=O)Nc1ccc(Cl)cc1)(OC)C(F)(F)F (stereo unspecified),> 100
2,COC(=O)C1(O)C(c2ccccc2)=NC2(C)CCCC21 (stereo unspecified),> 100
3,C=CC(=O)N1C/C(=C\c2ccc(Cl)cc2)C(=O)/C(=C/c2ccc(Cl)cc2)C1,0.55

# Tested on: NCI-H522 lung
# Experiment: DTP human tumour cell line panel, 48 h
row,Compound,TGI [µM]
1,O=S1(=O)C[C@@H](NCc2ccccc2)[C@H](NCc2ccccc2)C1,> 100
2,COC(=O)C1(O)C(c2ccccc2)=NC2(C)CCCC21 (stereo unspecified),> 100

# Tested on: UACC-257 melanoma
# Experiment: DTP human tumour cell line panel, 48 h
row,Compound,TGI [µM]
1,CCOC(=O)C(NC(=O)Nc1ccc(Cl)cc1)(OC)C(F)(F)F (stereo unspecified),> 100
2,O=S1(=O)C[C@@H](NCc2ccccc2)[C@H](NCc2ccccc2)C1,> 100
3,COC(=O)C1(O)C(c2ccccc2)=NC2(C)CCCC21 (stereo unspecified),> 100
4,C=CC(=O)N1C/C(=C\c2ccc(Cl)cc2)C(=O)/C(=C/c2ccc(Cl)cc2)C1,3.65

# Tested on: DU-145 prostate
# Experiment: DTP human tumour cell line panel, 48 h
row,Compound,TGI [µM]
1,O=S1(=O)C[C@@H](NCc2ccccc2)[C@H](NCc2ccccc2)C1,> 100
2,COC(=O)C1(O)C(c2ccccc2)=NC2(C)CCCC21 (stereo unspecified),> 100
3,C=CC(=O)N1C/C(=C\c2ccc(Cl)cc2)C(=O)/C(=C/c2ccc(Cl)cc2)C1,3.66

# Tested on: HCT-116 colon
# Experiment: DTP human tumour cell line panel, 48 h
row,Compound,TGI [µM]
1,CCOC(=O)C(NC(=O)Nc1ccc(Cl)cc1)(OC)C(F)(F)F (stereo unspecified),> 100
2,O=S1(=O)C[C@@H](NCc2ccccc2)[C@H](NCc2ccccc2)C1,> 100
3,COC(=O)C1(O)C(c2ccccc2)=NC2(C)CCCC21 (stereo unspecified),> 100
4,C=CC(=O)N1C/C(=C\c2ccc(Cl)cc2)C(=O)/C(=C/c2ccc(Cl)cc2)C1,0.257

# Tested on: SK-MEL-5 melanoma
# Experiment: DTP human tumour cell line panel, 48 h
row,Compound,TGI [µM]
1,CCOC(=O)C(NC(=O)Nc1ccc(Cl)cc1)(OC)C(F)(F)F (stereo unspecified),> 100
2,O=S1(=O)C[C@@H](NCc2ccccc2)[C@H](NCc2ccccc2)C1,> 100
3,COC(=O)C1(O)C(c2ccccc2)=NC2(C)CCCC21 (stereo unspecified),> 100
4,C=CC(=O)N1C/C(=C\c2ccc(Cl)cc2)C(=O)/C(=C/c2ccc(Cl)cc2)C1,5.11

# Tested on: RPMI-8226 leukemia
# Experiment: DTP human tumour cell line panel, 48 h
row,Compound,TGI [µM]
1,O=S1(=O)C[C@@H](NCc2ccccc2)[C@H](NCc2ccccc2)C1,> 100
2,COC(=O)C1(O)C(c2ccccc2)=NC2(C)CCCC21 (stereo unspecified),> 100
